This note sets out measurements from ChEMBL document CHEMBL6153032, “Discovery of a highly potent, N-terminal domain-targeting degrader of AR-FL/AR-V7 for the treatment of prostate cancer” (Eur J Med Chem, 2025).

Data set [1] can be described thus: Metabolic stability in human liver microsome assessed as intrinsic clearance measured upto 45 mins by LC/MS analysis. It counts as ADME. The note with it: liver microsomes, read-out: CLH.
For data set [2], the target named is Protein cereblon/Androgen receptor (Homo sapiens, UniProt P10275+Q96SW2). Nature of the data set: PROTAC activity at full length Androgen receptor/CRBN in human 22Rv1 cells assessed as induction of full length androgen receptor degradation at 100 nM incubated for 12 hrs in presence of MLN4924 by Western blot analysis. It counts as cell-based.

Calls of active or inactive are those of the source. The rule behind the calls is not given here.

Sequence of Protein cereblon/Androgen receptor (P10275 whole entry, looked up): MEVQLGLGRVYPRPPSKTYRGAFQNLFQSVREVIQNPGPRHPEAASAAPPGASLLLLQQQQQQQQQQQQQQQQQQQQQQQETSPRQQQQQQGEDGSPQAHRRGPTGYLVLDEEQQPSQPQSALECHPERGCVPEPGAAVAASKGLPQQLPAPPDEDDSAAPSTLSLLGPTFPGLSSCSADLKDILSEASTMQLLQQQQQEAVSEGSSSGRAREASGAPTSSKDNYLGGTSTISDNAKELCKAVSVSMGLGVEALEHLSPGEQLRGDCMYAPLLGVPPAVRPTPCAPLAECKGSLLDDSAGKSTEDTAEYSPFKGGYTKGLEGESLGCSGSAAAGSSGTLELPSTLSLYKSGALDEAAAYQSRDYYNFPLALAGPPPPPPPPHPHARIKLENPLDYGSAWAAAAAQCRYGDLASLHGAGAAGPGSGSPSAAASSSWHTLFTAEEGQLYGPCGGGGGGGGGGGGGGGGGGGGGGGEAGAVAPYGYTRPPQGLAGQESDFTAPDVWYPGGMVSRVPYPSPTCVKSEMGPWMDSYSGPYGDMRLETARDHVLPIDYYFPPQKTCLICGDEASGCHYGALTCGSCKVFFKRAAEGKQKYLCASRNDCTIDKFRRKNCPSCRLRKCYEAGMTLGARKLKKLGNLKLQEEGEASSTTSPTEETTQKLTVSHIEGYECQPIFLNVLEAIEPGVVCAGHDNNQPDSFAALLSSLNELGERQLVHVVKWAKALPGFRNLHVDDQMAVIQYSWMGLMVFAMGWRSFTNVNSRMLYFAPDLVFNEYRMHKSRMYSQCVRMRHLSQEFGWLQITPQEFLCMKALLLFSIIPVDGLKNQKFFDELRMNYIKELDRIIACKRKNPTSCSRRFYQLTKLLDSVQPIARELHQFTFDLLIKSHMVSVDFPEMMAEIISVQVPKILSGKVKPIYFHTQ
Sequence of Protein cereblon/Androgen receptor (Q96SW2 whole entry, looked up): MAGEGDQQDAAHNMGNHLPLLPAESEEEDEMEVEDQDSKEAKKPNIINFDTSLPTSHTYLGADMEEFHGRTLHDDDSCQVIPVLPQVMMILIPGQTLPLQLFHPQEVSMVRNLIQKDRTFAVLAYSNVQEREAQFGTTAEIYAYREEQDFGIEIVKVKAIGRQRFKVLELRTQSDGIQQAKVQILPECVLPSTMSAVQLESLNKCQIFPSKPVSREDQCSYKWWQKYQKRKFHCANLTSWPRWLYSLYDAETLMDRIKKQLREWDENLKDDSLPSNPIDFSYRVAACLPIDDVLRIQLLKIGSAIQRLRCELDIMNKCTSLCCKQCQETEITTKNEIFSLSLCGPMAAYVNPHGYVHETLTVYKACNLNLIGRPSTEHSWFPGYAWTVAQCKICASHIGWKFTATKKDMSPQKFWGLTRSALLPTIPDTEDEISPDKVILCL

Turning to `CC(C)(c1ccc(OCCNc2cccc3c2C(=O)N(C2CCC(=O)NC2=O)C3=O)cc1)c1ccc(OCc2cccc(N3CCOCC3)n2)cc1` (configuration not stated), in data set [1], the CLint scaled was 43.1 mL/min/kg. The result in data set [2] was Active.
